Where two headings read alike, the source gives them in different places.
How the values were obtained:
T. pulmonis-PW1004 [1] = test: Treatment of experimental Tsukamurella keratitis in rabbits
Method: 6.4.4 Development of a rabbit model for Tsukamurella keratitis. Bacterial suspensions used to infect rabbits were prepared by culturing T. pulmonis-PW1004 in BHI for 48 h. Eight male NZW rabbits, 1.5-2.0 kg, were inoculated intrastromally as described previously^37. Corneas of 4 rabbits were injected with approximately 10 μl (i.e., 10^6 CFU) of T. pulmonis-PW1004 using a microliter syringe with a 30 G needle. Another 4 rabbit corneas were challenged with plain culture medium as the control. Rabbits were monitored daily for signs of disease. At 24 h PI, rabbit eyes were photographed, evaluated for pathology, and sacrificed. After euthanasia, the corneas of each rabbit were surgically removed for histopathological and immunohistochemical analyses and bacterial enumeration.
6.4.5 Treatment of experimental Tsukamurella keratitis. Efficacy of the two antibiotics, topical 0.5% Cravit® levofloxacin (Santen Pharmaceutical Company, Japan) and 0.02% PHMB (Lonza, Switzerland), for the treatment of Tsukamurella keratitis were evaluated, respectively. Tsukamurella keratitis was first established in 12 NZW rabbits (n=4 per group) using procedures as described above. Infection was allowed to proceed for 24 h before initiation of antibiotic therapy. These 12 NZW rabbits were divided into 3 topical treatment groups: (1) 0.5% levofloxacin, (2) 0.02% PHMB, and (3) saline. Treatment regimens of levofloxacin and PHMB were performed according to Fiscella et al. and Kowalski et al., respectively, with slight modifications^16,17. For the first group of rabbits treated with levofloxacin (n=4), drops (50 μl) of levofloxacin were applied to the affected eyes hourly for 10 doses over 3 days. For the second group of rabbits treated with PHMB (n=4), drops (50 μl) of PHMB were applied to the affected eyes hourly for 8 doses over 3 days. Rabbits in the third control group (n=4) received the same regimen of sterile saline (0.85% NaCl) hourly for 10 doses over 3 days. In addition to these 3 treatment groups, two extra NZW rabbits without infection were used as controls (i.e., mock-infected and mock-treated rabbits), receiving the same regimen of saline for 3 days. One hour after the final instillation of the antibiotics and saline drops, rabbit eyes were photographed, evaluated for pathology, and sacrificed. The treatment efficacy was compared and evaluated by the quantitative culture and histopathological analysis of the infected corneas.
6.4.6 Quantification of Tsukamurella cells. To quantify the number of viable Tsukamurella in the cornea, the cornea harvested from each rabbit was cut into smaller pieces using a sterile scalpel. The corneal pieces were placed into a sterile tube containing 500 μl of PBS (pH 7.2). Each tissue was homogenized, and homogenates were serially diluted 10-fold in PBS (pH 7.2). One hundred microliters of each diluted sample was plated in triplicate on the BHI agar and incubated at 37° C. under aerobic conditions for 48 h. The number of bacteria was determined and expressed as CFU/cornea.
To examine the histopathology of corneal tissues of rabbits challenged with the PW1004-WT and its derivative mutants, excised infected eyes, including the cornea of challenged rabbits, were subjected to histopathological examination. Corneal tissues harvested from the rabbits were fixed in 10% neutral-buffered formalin, embedded in paraffin, and stained with hematoxylin and eosin (H&E) according to Fischer et al.^39.

Tsukamurella = settings: literature refs 3, 12; cited from earlier work
T. tyrosinosolvens-PW899 = tested on: T. tyrosinosolvens-PW899
Method: (§1) 6.4.9 In vitro susceptibility of planktonic cultures of Tsukamurella against contact lens and PHMB solutions. A susceptibility test was performed following the procedures as described in FDA/ISO14729 stand-alone procedure for disinfecting products^13. Briefly, 0.1 ml of 1×10^8 CFUs/ml bacterial suspension from 7 different Tsukamurella species was added into 10 ml each of the 4 commercial contact lens solutions, respectively, and the mixture was incubated at room temperature according to the manufacturer's recommended disinfection time (Table 1). After incubation, a 1-ml aliquot was withdrawn from each mixture and added to 9 ml of Dey-Engley neutralizing broth (Sigma, USA) for 15 min at room temperature for neutralization of the preservative. The mixture was then serially diluted, and 100 μl of each diluted sample was plated in triplicate on the BHI agar for sampling of viable bacteria. P. aeruginosa ATCC27853 was used as a control. The mean logarithmic reduction was calculated. According to the guideline, only a contact lens solution capable of reducing the viability of starting concentration of bacteria by 3-log is defined as satisfactory. All experiments were performed in triplicate and repeated 3 times along with the control strain.

T. pulmonis-PW1004 [2] = tested on: T. pulmonis-PW1004
Method: as §1

T. pulmonis-PW1004 [3] = settings: for Zone of inhibition: 6 mm disk, 48 h, 37° C.
Source text: Disk diffusion assay was initially used to determine the susceptibility of T. pulmonis-PW1004 against various concentrations of PHMB. Briefly, standard paper disks, 6 mm in diameter, impregnated with different dilutions of PHMB (0.0005%, 0.001%, 0.0025%, 0.005%) were placed onto BHI agar plates inoculated with overnight culture of a 0.5 McFarland standard prepared from T. pulmonis-PW1004, following standard procedures^15. Paper disks soaked in 0.85% NaCl were used as the control. Zones of inhibition were measured after 48 h of incubation at 37° C. under aerobic conditions. […] Next, we re-examined the susceptibility of the 4 contact lens solutions against the 7 Tsukamurella species by adjusting the final concentration of PHMB to 0.0025%, following the procedures as described in the previous paragraph.

[4] = 0.02% PHMB topical for 3 days, compared to saline control rabbits
[5] = PHMB 0.005% compared with 0.0025%

C[C@H]1COc2c(N3CCN(C)CC3)c(F)cc3c(=O)c(C(=O)O)cn1c23 [levofloxacin]
corneal perforation and adverse signs (T. pulmonis-PW1004 [1]; rabbit, in vivo): corneal perforations with severe discharges accompanied by behavioral abnormalities

O=C(N[C@H](CO)[C@H](O)c1ccc([N+](=O)[O-])cc1)C(Cl)Cl [chloramphenicol]
susceptibility of Tsukamurella to topical antibiotic eye drops (Tsukamurella): generally resistant

polyhexamethylene biguanide [PHMB]
PMN infiltration in corneal stroma and epithelium (T. pulmonis-PW1004 [1]; [4]): less evident
histological examination: stromal edema and capillary formation (T. pulmonis-PW1004 [1]; [4]): lower degree of stromal edema as well as capillary formation
keratitis symptoms, gross appearance (T. pulmonis-PW1004 [1]; [4]): keratitis symptoms became less severe
number of bacteria recovered from the cornea (T. pulmonis-PW1004 [1]; 0.02% PHMB topical, hourly 8 doses over 3 days, started 24 h PI, P<0.01 vs saline): 1.05±0.07 log
corneal perforation (T. pulmonis-PW1004 [1]; 0.02% PHMB topical, whole course of treatment): did not observe corneal perforation
toxicity in rabbit corneal tissues (T. pulmonis-PW1004 [1]; PHMB 0.02% topical): no toxicity
log reduction (T. tyrosinosolvens-PW899; PHMB 0.0005%): < 3 log
log reduction (T. tyrosinosolvens-PW899; PHMB 0.001%): < 3 log
log reduction (T. tyrosinosolvens-PW899; PHMB 0.0025%): 3 log
further reduction of bacterial numbers (T. tyrosinosolvens-PW899; [5]): could not be further reduced
log reduction (T. pulmonis-PW1004 [2]; PHMB 0.0005%): < 3 log
log reduction (T. pulmonis-PW1004 [2]; PHMB 0.001%): < 3 log
log reduction (T. pulmonis-PW1004 [2]; PHMB 0.0025%): 3 log
further reduction of bacterial numbers (T. pulmonis-PW1004 [2]; [5]): could not be further reduced
Zone of inhibition (T. pulmonis-PW1004 [3]; PHMB concentration 0.0005%): 0 mm
Zone of inhibition (T. pulmonis-PW1004 [3]; PHMB concentration 0.001%): 0 mm
Zone of inhibition (T. pulmonis-PW1004 [3]; PHMB concentration 0.0025%): 13 mm
Zone of inhibition (T. pulmonis-PW1004 [3]; PHMB concentration 0.005%): 14 mm
minimal concentration that achieved good efficacy (T. pulmonis-PW1004 [3]; disk diffusion, preliminary results): 0.0025%

— patent US12527814B2, “Treatment of an ocular infection, composition and methods thereof” (priority 2019, dated 2026)
